In the NIST ThermoML archive (doi:10.1016/j.jct.2013.06.007):
Values joined by “and” are separate entries in the source; they are usually repeats but may differ in a detail not shown here. Identical values can stand only once. ± gives the expanded uncertainty stated by the source.

Experiments:
[1] = Molar enthalpy of transition or fusion; conditions: Crystal; DSC
[2] = Crystal; DTA

Molar enthalpy of transition or fusion [1]: 6.75 kcal/mol and 6.39 kcal/mol
Normal melting temperature [2]: 53.47 ± 0.48 °C and 52.70 ± 0.87 °C
Compound: CCOC(=O)NCCOc1ccc(Oc2ccccc2)cc1 [fenoxycarb]
